Results: BigSolDB 2.1

O=C(O)c1cccc(Cl)c1C(=O)O
in water
Details	solubility (mole fraction)
283.15 K	0.00201
288.15 K	0.00221
293.15 K	0.00248
298.15 K	0.00281
303.15 K	0.00315
308.15 K	0.00346
313.15 K	0.00383
318.15 K	0.0043
323.15 K	0.00473
328.15 K	0.00517
333.15 K	0.0056

O=C1OC(=O)c2cc(Cl)ccc21
solubility (mole fraction)
Details	283.15 K	288.15 K	293.15 K	298.15 K	303.15 K	308.15 K	313.15 K	318.15 K	323.15 K
in 1,4-dioxane	0.0825	0.0992	0.124	0.142	0.166	0.205	0.25	0.298	0.359
in acetone	0.201	0.222	0.246	0.287	0.316	0.369	0.427	0.473	0.522
in ethyl acetate	0.178	0.184	0.206	0.228	0.261	0.293	0.326	0.377	0.437

O=C(O)c1ccc(Cl)cc1C(=O)O
in water
Details	solubility (mole fraction)
283.15 K	0.0802
288.15 K	0.0913
293.15 K	0.109
298.15 K	0.125
303.15 K	0.145
308.15 K	0.169
313.15 K	0.2
318.15 K	0.226
323.15 K	0.262
328.15 K	0.299
333.15 K	0.349

O=C1OC(=O)c2c(Cl)cccc21
solubility (mole fraction)
Details	283.15 K	288.15 K	293.15 K	298.15 K	303.15 K	308.15 K	313.15 K	318.15 K	323.15 K
in 1,4-dioxane	0.185	0.226	0.268	0.296	0.328	0.367	0.396	0.42	0.439
in acetone	0.167	0.182	0.202	0.218	0.234	0.261	0.291	0.32	0.357
in ethyl acetate	0.107	0.112	0.121	0.133	0.154	0.169	0.191	0.225	0.265
